Assay [1] concerns humanized NSG mice. Description: Immunohistochemistry of humanized NSG mouse skin tissue for human CD8 T cells. Format: in vivo. As to conditions: 7-weeks post-transplant with vs without BNZ-γ treatment. On the procedure: In order to characterize the nature of immune attack in the skin tissue and around the hair follicles, immunohistochemistry studies were conducted of the skin tissue of humanized NSG mice 3-weeks (pre-BNZ-γ) and 7-weeks (with or without BNZ-γ treatment) after transplantation of 2 million huPBMCs. The tissue was fixed for 24 hours in 4% formalin (Sigma) and then moved to 70% ethanol for at least 24 hours before being processed. Tissue was then embedded in paraffin following dehydration for two washes of two hours each in 70%, 90%, and 100% ethanol, then cleared in xylene twice for two hours each, and infiltrated with melted paraplast plus at 60 C two times for two hours. Paraffin embedded tissues were stored at room temperature prior to sectioning and staining. An anti-human CD8 antibody (BioCare Medical CRM 311C) or isotype control was used for staining of the tissues based on the standard procedure for IHC.

The subject of the next assay is IL-3. Description: PT-18β cell proliferation assay (WST-1), IL-3 as non-γc-cytokine negative control. In kind it is cell-based, murine. As to conditions: PT-18β cells, 1 nM cytokine, BNZ-γ as 1:20 or 1:60 dilution of HEK293T supernatant, 2 days. From the text: (§1) For each of the six γc-cytokines, indicator cell lines: NK92, a human NK cell line NK92 available by American Type Culture Collection (ATCC) (catalog #CRL-2407), CTLL-2, a murine CD8 T cells line available from ATCC, and PT-18, a murine mast cell line and its subclone PT-18β, is transfected with human IL-2Rβ gene to make the cells responsive to IL-2 and IL-15 (Tagaya et al., 1996, EMBO J. 15:4928-39), and is used to quantitatively determine the γc-cytokine's growth-promoting activity (See Current protocols in Immunology from Wiley and Sons for a methodological reference).
(§2) Once the appropriate doses of the cytokine that yield the 50% and 95% maximum response from the indicator cell line is determined, various concentrations (ranging from 1 pM to 10 μM) of the purified or synthesized custom derivative peptide is added to each well containing the cytokine and indicator cells. The reduction in light absorbance at 450 nm is used as an indicator of inhibition of cytokine-stimulated cellular proliferation. Typically, the cells are stimulated by the cytokines such that the absorbance of the well containing indicator cell line and the cytokine is between 2.0 and 3.0, which is reduced to a range of 0.1 to 0.5 by the addition of inhibitory peptides. […]
(§3) The growth-responses of the cells were determined 2 days after the introduction of BNZ-γ peptide and the cytokine using the WST-1 assay. […]

Another assay deals with STAT5. Description: IL-15-stimulated tyrosine phosphorylation of STAT5 in PT-18β cells (anti-phospho-STAT5 immunoblot). In kind it is cell-based, murine. As to conditions: PT-18β cells stimulated by IL-15, presence vs absence of BNZ-γ peptide. The source says: In addition to stimulating cellular proliferation, binding of the γc-cytokines to their receptors causes a diverse array of intracellular events. (Rochman et al. 2009 Nat. Rev. Immunol. 9:480-90, Pesu et al. 2005 Immunol. Rev. 203:127-142.) Immediately after the cytokine binds to its receptor, a tyrosine kinase called Jak3 (Janus-kinase 3) is recruited to the receptor at the plasma membrane. This kinase phosphorylates the tyrosine residues of multiple proteins including the γc-subunit, STAT5 (Signal Transducer and Activator of Transcription 5) and subunits of the PI3 (Phosphatidylinositol 3) kinase. Among these, the phosphorylation of STAT5 has been implicated in many studies as being linked to the proliferation of cells initiated by the γc-cytokine. (Reviewed in Hennighausen and Robinson, 2008 Genes Dev. 22:711-21.) In accordance with these published data, whether or not the BNZ-γ peptide inhibits the tyrosine phosphorylation of STAT5 molecule in PT-18β cells stimulated by IL-15 was examined (results shown in FIG. 4).
PT-18β cells were stimulated by IL-15 in the presence or absence of BNZ-γ peptide. Cytoplasmic proteins were extracted from the cells according to a conventional method as described in Tagaya et al. 1996 EMBO J. 15:4928-39. […]

The subject of assay [2] is humanized NSG mice.
Experimental: In this experiment, NSG mice were transplanted with 2 million huPBMCs on study day 0, with therapeutic treatment beginning 35-days post-transplant. Mice were treated twice weekly with IV injections of PBS control (n=5), BNZ-γ at 2 mg/kg (n=5), anti-IL-2 antibody at 5 mg/kg (n=3), anti-IL-15 antibody at 5 mg/kg (n=3), or combination anti-IL-2 and anti-IL-15 antibody each at 5 mg/kg (n=3) starting on day 35 for a treatment duration of 4 weeks.
Levels of IL-6 and IFNγ were also measured in this experiment. […] Cytokine levels were determined using sera collected on day 50, except for one animal in the anti-IL-2 antibody treatment group (collected on day 45), one mouse in the PBS control untreated group (collected on day 45), and two mice from the PBS control untreated group (collected on day 40) to ensure a blood sample was collected before each became fatally ill.
The subject of the next assay is IL-9. In words: PT-18β cell proliferation assay (WST-1), IL-9. The note with it: PT-18β cells, 1 nM cytokine, BNZ-γ as 1:20 or 1:60 dilution of HEK293T supernatant, 2 days. In kind it is cell-based, murine.
Text: as §1, §2, §3

A further assay has as its system IL-4. In words: PT-18β cell proliferation assay (WST-1), IL-4. The note with it: PT-18β cells, 1 nM cytokine, BNZ-γ as 1:20 or 1:60 dilution of HEK293T supernatant, 2 days. In kind it is cell-based, murine.
Text: as §1, §2, §3

Another assay relates to IL-15. Description: PT-18β cell proliferation assay (WST-1), IL-15. In kind it is cell-based, murine. The note with it: PT-18β cells, 1 nM cytokine, BNZ-γ as 1:20 or 1:60 dilution of HEK293T supernatant, 2 days.
Text: as §1, §2, §3

Where [3] appears, read: sera collected on day 50 (some earlier), vs PBS control.

Here are results for 1 substance from US12030936B2, “Modulating the effects of gamma-c-cytokine signaling for the treatment of alopecia and alopecia associated disorders” (BIONIZ THERAPEUTICS, LLC, priority 2019, dated 2024).

For “I-K-E-F-L-Q-R-F-I-H-I-V-Q-S-I-I-N-T-S (IKEFLQRFIHIVQSIINTS) [BNZ-γ, 19-mer artificial composite peptide combining the human IL-2 and IL-15 γc-box]”, the “number of infiltrated human CD8 T cells in skin tissue” value with humanized NSG mice [1] was “significant reduction in the number of infiltrated CD8 cells”. Further, the “growth-promoting activity of IL-3” value in the assay on IL-3 is “not inhibited”. In addition, the “tyrosine phosphorylation of STAT5” value in the assay with STAT5 was “markedly reduced”. Further, in the assay on humanized NSG mice [2] (BNZ-γ 2 mg/kg IV twice weekly, 4 weeks from day 35, the words are printed of the combination, BNZ-γ being the more effective (p=0.001)), the “survival of the BNZ-γ group relative to combination antibody treatment” value is “less effective than BNZ-γ”. For the same substance, the regrowth of hair entry with humanized NSG mice [2] (approximately two weeks after treatment was completed (~day 63), 4-week treatment from day 35) is recorded as “greatest degree of hair regrowth of all 4 treatment groups”. In addition, in the assay on humanized NSG mice [2] (setting [3]), the “level of IFNγ in sera” value was “most effective” and the “level of IL-6 in sera” value is recorded as “most effective”. In the assay with IL-9, the “growth-promoting activity of IL-9” value was “significantly (p<0.01 Student's T test) reduced”. Also, the “cellular proliferation stimulated by IL-4” value in the assay with IL-4 is on record as “not affected”. Further, the “growth-promoting activity of IL-15” value in the assay with IL-15 was “significantly (p<0.01 Student's T test) reduced”.
